Experiment [1] relates to HCT116 p53−/− colon cancer cells. The experiment is described as follows: Colony formation assay, HCT116 p53−/−. It is filed as cell-based, human. The procedure: FIG. 6. Effect of OSW-1 on cell survival in human colon carcinoma cells. Human colon cancer cells with wild-type p53 (HCT116 p53+/+) and p53-null (HCT116 p53−/−) were treated with the indicated concentrations of OSW-1, and cell survival was measured by colony formation assay.
OSW-1 Inhibits Growth of Human Colon Cancer Cells. […] The HCT116 colon cancer cells with wild-type p53 (p53+/+) and p53-null (p53−/−) were treated with the various concentrations of orsaponin (OSW-1), and cell survival was measured by colony formation assay.

Experiment [2] has as its system ML-1 leukemia cells. Description: MTT cell growth inhibition, ML-1. It is filed as cell-based, human. The following applies: Homo sapiens, 72 h, ML-1, 72 h. As to the method: 1. MTT Assays. For these assays either cancer cell lines were used. Alternatively, mononuclear cells from peripheral blood samples of CLL patients or normal donors were separated by Ficoll Hipaque fractionation and resuspended in DMEM complete medium. Malignant cells from various human cell lines (usually at 5×10^4 cells/ml) or mononuclear cells from peripheral blood of leukemia patients and healthy donors (1×10^6 cells/ml) were incubated in either αMEM or RPMI 1640 with or without various concentrations of OSW-1 in the range of 0-10 nM. Each experimental condition was done in triplicate. After the indicated number of days (usually 3 days or 72 hours) of exposure to OSW-1, cell survival was assessed by the addition of the MTT dye to the wells. The MTT dye changes its color depending on the presence of live cells in the well. Survival of cells under orsaponin treatment was evaluated as a percentage of control cell growth. Alternatively, one can also use the dye trypan-blue which penetrates dead cells thereby allowing one to count live cells under the microscope and estimating percentage survival.
Anticancer activities of Orsaponin and 17-deoxyorsaponin were examined in human leukemia cells (ML-1) and human lymphoma cells (Raji). Cells were incubated with various concentrations of Orsaponin and 17-deoxyorsaponin for 72 h, and cell growth inhibition was measured by MTT assay.
The effect of 17-deoxyorsaponin in human ovarian cancer cells was determined. SKOV3 ovarian cancer cells were incubated with various concentrations of 17-deoxyorsaponin for 72 h. Cell growth inhibition was measured by MTT assay (FIG. 17). […] The effect of 17-deoxyorsaponin in human acute myeloid leukemia cells was also examined. ML-1 leukemia cells were incubated with various concentrations of 17-deoxyorsaponin for 72 h and cell growth inhibition was measured using the MTT assay (FIG. 18).

As to `COc1ccc(C(=O)OC2C(OC3C(O)COC(O[C@H]4C[C@H]5[C@@H]6CC=C7C[C@@H](O)CC[C@]7(C)[C@H]6CC[C@]5(C)[C@@]4(O)[C@H](C)C(=O)CCC(C)C)C3OC(C)=O)OCC(O)C2O)cc1` (stereo partly drawn) [OSW-1, 3β, 16β, 17 α-trihydroxycholost-5-en-22-one 16-O-(2-O-4-methoxybenzoyl-β-D-xylopyranosyl)-(1->3)-(2-O-acetyl-α-L-arabinopyranoside)], in experiment [1], the “cell survival, colony formation” value is listed as “effectively kill the p53−/− cells”. The molecule further yielded an IC50 in experiment [2] of less than 0.1 nM.

The values are drawn from patent publication US20050004044A1, “Use of orsaponin [3beta, 16beta, 17 alpha-trihydroxycholost-5-en-22-one 16-0-(2-0-4-methoxybenzoyl-beta-D-xylopyranosyl)-(1->3)-(2-0-acetyl-alpha-L-arabinopyranoside)] or OSW-1 and its derivatives for cancer therapeutics” (priority 2003, published 2005).
